From patent US11274083B2, “Substituted thiophenyl uracils, salts thereof and the use thereof as herbicidal agents” (Syngenta Crop Protection AG, priority 2017, dated 2022)

Tests used:
Format in all cases: in vivo
[1] = tested on: Abutilon theophrasti; assay: Herbicidal action post-emergence, greenhouse pot test
In short: (§1)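 Weeds in sandy loam pots sprayed at one-leaf stage (2–3 weeks after sowing) with WP or EC formulations in water plus 0.5% additive, 600 L/ha, at 80 g/ha or lower. After about 3 weeks in greenhouse, efficacy scored visually versus untreated controls (100% = dead, 0% = like control).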

[2] = tested on: Amaranthus retroflexus; assay: as above
In short: as §1

[3] = tested on: Echinochloa crus-galli; assay: as above
In short: as §1

[4] = tested on: Hordeum murinum; assay: as above
In short: as §1

[5] = tested on: Lolium rigidum; assay: as above
In short: as §1

[6] = tested on: Matricaria inodora; assay: as above
In short: as §1

[7] = tested on: Pharbitis purpurea; assay: as above
In short: as §1

[8] = tested on: Polygonum convolvulus; assay: as above
In short: as §1

[9] = tested on: Setaria viridis; assay: as above
In short: as §1

[10] = tested on: Stellaria media; assay: as above
In short: as §1

[11] = tested on: Veronica persica; assay: as above
In short: as §1

[12] = tested on: Viola tricolor; assay: as above
In short: as §1

[13] = tested on: Triticum aestivum; assay: Crop compatibility post-emergence, greenhouse pot test
In short: (§2)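 Visual % damage versus untreated plants, read about 3 weeks after treatment (100% = plants died, 0% = as control). Crops were sown in sandy loam pots in a greenhouse and sprayed at one-leaf stage with WP/EC compound in water with 0.5% additive, 600 L/ha.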

[14] = tested on: Abutilon theophrasti; assay: Herbicidal action pre-emergence, greenhouse pot test; conditions: application rate 320 g/ha
In short: (§3)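 Seeds sown in pots and covered with soil; WP or EC formulations sprayed onto the soil surface as aqueous suspension/emulsion with 0.5% additive at 600 L/ha water, at 320 g/ha or lower. Plants kept in greenhouse; efficacy scored visually after about 3 weeks as % versus untreated controls (100% = dead).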

[15] = tested on: Alopecurus myosuroides; assay: as above; conditions: application rate 320 g/ha
In short: as §3

[16] = tested on: Amaranthus retroflexus; assay: as above
In short: as §3

[17] = tested on: Avena fatua; assay: as above; conditions: application rate 320 g/ha
In short: as §3

[18] = tested on: Cyperus esculentus; assay: as above; conditions: application rate 320 g/ha
In short: as §3

[19] = tested on: Echinochloa crus-galli; assay: as above; conditions: application rate 320 g/ha
In short: as §3

[20] = tested on: Hordeum murinum; assay: as above; conditions: application rate 320 g/ha
In short: as §3

[21] = tested on: Lolium rigidum; assay: as above; conditions: application rate 320 g/ha
In short: as §3

[22] = tested on: Pharbitis purpurea; assay: as above; conditions: application rate 320 g/ha
In short: as §3

[23] = tested on: Polygonum convolvulus; assay: as above; conditions: application rate 320 g/ha
In short: as §3

[24] = tested on: Setaria viridis; assay: as above; conditions: application rate 320 g/ha
In short: as §3

[25] = tested on: Stellaria media; assay: as above
In short: as §3

[26] = tested on: Veronica persica; assay: as above; conditions: application rate 320 g/ha
In short: as §3

[27] = tested on: Viola tricolor; assay: as above; conditions: application rate 320 g/ha
In short: as §3

[28] = tested on: Matricaria inodora; assay: as above
[29] = tested on: Alopecurus myosuroides; assay: Herbicidal action post-emergence, greenhouse pot test; conditions: scored visually after about 3 weeks vs untreated controls
In short: as §1

[30] = tested on: Avena fatua; assay: as above
In short: as §1

[31] = tested on: Oryza sativa; assay: Crop compatibility post-emergence, greenhouse pot test; conditions: application rate 5 g/ha
In short: as §2

[32] = tested on: Digitaria sanguinalis; assay: Herbicidal action post-emergence, greenhouse pot test
[33] = tested on: Zea mays; assay: Crop compatibility post-emergence, greenhouse pot test; conditions: application rate 5 g/ha
In short: as §2

CC(Sc1cc(-n2c(=O)cc(C(F)(F)F)n(C)c2=O)c(F)cc1Cl)C(=O)OCCC(=O)OC(C)(C)C (centres unmarked) [I.1-5]
80%: Hordeum murinum (Efficacy in %) ([4]; application rate 80 g/ha) | Lolium rigidum (Efficacy in %) ([5]; application rate 80 g/ha) | Cyperus esculentus (Efficacy in %) [18]
20%: Triticum aestivum (Efficacy in %) ([13]; application rate 80 g/ha)
100%: Abutilon theophrasti (Efficacy in %) ([1]; application rate 80 g/ha) | Amaranthus retroflexus (Efficacy in %) ([2]; application rate 80 g/ha) | Echinochloa crus-galli (Efficacy in %) ([3]; application rate 80 g/ha) | Matricaria inodora (Efficacy in %) ([6]; application rate 80 g/ha) | Pharbitis purpurea (Efficacy in %) ([7]; application rate 80 g/ha) | Polygonum convolvulus (Efficacy in %) ([8]; application rate 80 g/ha) | Setaria viridis (Efficacy in %) ([9]; application rate 80 g/ha) | Stellaria media (Efficacy in %) ([10]; application rate 80 g/ha) | Veronica persica (Efficacy in %) ([11]; application rate 80 g/ha) | Viola tricolor (Efficacy in %) ([12]; application rate 20 g/ha) | Abutilon theophrasti (Efficacy in %) [14] | Alopecurus myosuroides (Efficacy in %) [15] | Amaranthus retroflexus (Efficacy in %) ([16]; application rate 80 g/ha) | Avena fatua (Efficacy in %) [17] | Echinochloa crus-galli (Efficacy in %) [19] | Hordeum murinum (Efficacy in %) [20] | Lolium rigidum (Efficacy in %) [21] | Pharbitis purpurea (Efficacy in %) [22] | Polygonum convolvulus (Efficacy in %) [23] | Setaria viridis (Efficacy in %) [24] | Stellaria media (Efficacy in %) ([25]; application rate 80 g/ha) | Veronica persica (Efficacy in %) [26] | Viola tricolor (Efficacy in %) [27] | Matricaria inodora (Efficacy in %) ([28]; application rate 80 g/ha)

CCCOC(=O)CCOC(=O)C(C)Sc1cc(-n2c(=O)cc(C(F)(F)F)n(C)c2=O)c(F)cc1Cl (centres unmarked) [I.1-8]
20%: Oryza sativa (Efficacy in %) [31] | Triticum aestivum (Efficacy in %) ([13]; application rate 20 g/ha)
100%: Abutilon theophrasti (Efficacy in %) ([1]; application rate 80 g/ha) | Amaranthus retroflexus (Efficacy in %) ([2]; application rate 80 g/ha) | Echinochloa crus-galli (Efficacy in %) ([3]; application rate 80 g/ha) | Matricaria inodora (Efficacy in %) ([6]; application rate 80 g/ha) | Pharbitis purpurea (Efficacy in %) ([7]; application rate 80 g/ha) | Polygonum convolvulus (Efficacy in %) ([8]; application rate 80 g/ha) | Setaria viridis (Efficacy in %) ([9]; application rate 80 g/ha) | Stellaria media (Efficacy in %) ([10]; application rate 80 g/ha) | Veronica persica (Efficacy in %) ([11]; application rate 80 g/ha) | Viola tricolor (Efficacy in %) ([12]; application rate 80 g/ha) | Abutilon theophrasti (Efficacy in %) [14] | Amaranthus retroflexus (Efficacy in %) ([16]; application rate 320 g/ha) | Echinochloa crus-galli (Efficacy in %) [19] | Pharbitis purpurea (Efficacy in %) [22] | Polygonum convolvulus (Efficacy in %) [23] | Setaria viridis (Efficacy in %) [24] | Stellaria media (Efficacy in %) ([25]; application rate 320 g/ha) | Veronica persica (Efficacy in %) [26] | Viola tricolor (Efficacy in %) [27] | Matricaria inodora (Efficacy in %) ([28]; application rate 320 g/ha) | Digitaria sanguinalis (Efficacy in %) ([32]; application rate 80 g/ha)
80%: Avena fatua (Efficacy in %) ([30]; application rate 80 g/ha) | Alopecurus myosuroides (Efficacy in %) [15]
90%: Alopecurus myosuroides (Efficacy in %) ([29]; application rate 80 g/ha) | Hordeum murinum (Efficacy in %) ([4]; application rate 80 g/ha) | Lolium rigidum (Efficacy in %) ([5]; application rate 80 g/ha) | Lolium rigidum (Efficacy in %) [21]

CC(Sc1cc(-n2c(=O)cc(C(F)(F)F)n(C)c2=O)c(F)cc1Cl)C(=O)OC1COC(=O)C1 (centres unmarked) [I.1-144]
10%: Zea mays (Efficacy in %) [33]
100%: Abutilon theophrasti (Efficacy in %) ([1]; application rate 20 g/ha) | Amaranthus retroflexus (Efficacy in %) ([2]; application rate 20 g/ha) | Avena fatua (Efficacy in %) ([30]; application rate 20 g/ha) | Echinochloa crus-galli (Efficacy in %) ([3]; application rate 20 g/ha) | Lolium rigidum (Efficacy in %) ([5]; application rate 20 g/ha) | Matricaria inodora (Efficacy in %) ([6]; application rate 20 g/ha) | Pharbitis purpurea (Efficacy in %) ([7]; application rate 20 g/ha) | Polygonum convolvulus (Efficacy in %) ([8]; application rate 20 g/ha) | Setaria viridis (Efficacy in %) ([9]; application rate 20 g/ha) | Veronica persica (Efficacy in %) ([11]; application rate 20 g/ha) | Viola tricolor (Efficacy in %) ([12]; application rate 20 g/ha)
80%: Alopecurus myosuroides (Efficacy in %) ([29]; application rate 20 g/ha) | Hordeum murinum (Efficacy in %) ([4]; application rate 20 g/ha) | Stellaria media (Efficacy in %) ([10]; application rate 20 g/ha) | Digitaria sanguinalis (Efficacy in %) ([32]; application rate 20 g/ha)
20%: Oryza sativa (Efficacy in %) [31]
